Assay: mn = molality of the nth substance listed, in mol/kg
Conditions: Liquid, Taylor dispersion method

[Cl-].[K+] [potassium chloride] + O
Conditions | binary diffusion coefficient [m2/s]
298.15 K, 160 kPa, m1 = 0 | 1.94e-09
298.15 K, 240 kPa, m1 = 1 | 1.89e-09
298.15 K, 290 kPa, m1 = 2.5 | 2.02e-09
298.15 K, 480 kPa, m1 = 4.5 | 2.17e-09
298.15 K, 2290 kPa, m1 = 2.5 | 2.02e-09
298.15 K, 4500 kPa, m1 = 2.5 | 2.04e-09
298.15 K, 10170 kPa, m1 = 1 | 1.91e-09
298.15 K, 14990 kPa, m1 = 0 | 1.94e-09
298.15 K, 24920 kPa, m1 = 2.5 | 2.04e-09
298.15 K, 27060 kPa, m1 = 4.5 | 2.14e-09
298.15 K, 28210 kPa, m1 = 1 | 1.92e-09
298.15 K, 30920 kPa, m1 = 0 | 1.95e-09
298.15 K, 32600 kPa, m1 = 2.5 | 2.05e-09
298.15 K, 37390 kPa, m1 = 2.5 | 2.04e-09
298.15 K, 38630 kPa, m1 = 1 | 1.92e-09
298.15 K, 43800 kPa, m1 = 4.5 | 2.17e-09
298.15 K, 45590 kPa, m1 = 1 | 1.95e-09
298.15 K, 47430 kPa, m1 = 2.5 | 2.04e-09
298.15 K, 48170 kPa, m1 = 0 | 1.95e-09
298.15 K, 59030 kPa, m1 = 1 | 1.96e-09
298.15 K, 62940 kPa, m1 = 0 | 1.97e-09
298.15 K, 64970 kPa, m1 = 2.5 | 2.07e-09
298.15 K, 66020 kPa, m1 = 4.5 | 2.18e-09
298.15 K, 66170 kPa, m1 = 2.5 | 2.08e-09
298.15 K, 67070 kPa, m1 = 1 | 1.98e-09
298.15 K, 67630 kPa, m1 = 2.5 | 2.08e-09
323.15 K, 500 kPa, m1 = 4.5 | 3.34e-09
323.15 K, 580 kPa, m1 = 2.5 | 3.15e-09
323.15 K, 610 kPa, m1 = 1 | 3.03e-09
323.15 K, 640 kPa, m1 = 0 | 3.02e-09
323.15 K, 3950 kPa, m1 = 4.5 | 3.32e-09
323.15 K, 15300 kPa, m1 = 1 | 3.06e-09
323.15 K, 15460 kPa, m1 = 0 | 3.02e-09
323.15 K, 31370 kPa, m1 = 4.5 | 3.35e-09
323.15 K, 33580 kPa, m1 = 0 | 3.08e-09
323.15 K, 40890 kPa, m1 = 2.5 | 3.12e-09
323.15 K, 43400 kPa, m1 = 1 | 3.08e-09
323.15 K, 45210 kPa, m1 = 2.5 | 3.18e-09
323.15 K, 47480 kPa, m1 = 2.5 | 3.17e-09
323.15 K, 49570 kPa, m1 = 4.5 | 3.29e-09
323.15 K, 52060 kPa, m1 = 1 | 3.1e-09
323.15 K, 60490 kPa, m1 = 2.5 | 3.12e-09
323.15 K, 62690 kPa, m1 = 4.5 | 3.35e-09
323.15 K, 64860 kPa, m1 = 2.5 | 3.15e-09
323.15 K, 68560 kPa, m1 = 0 | 3.09e-09
323.15 K, 68970 kPa, m1 = 1 | 3.1e-09
348.15 K, 650 kPa, m1 = 0 | 4.48e-09
348.15 K, 660 kPa, m1 = 1 | 4.23e-09
348.15 K, 700 kPa, m1 = 2.5 | 4.52e-09
348.15 K, 730 kPa, m1 = 4.5 | 4.65e-09
348.15 K, 12830 kPa, m1 = 4.5 | 4.59e-09
348.15 K, 15720 kPa, m1 = 0 | 4.49e-09
348.15 K, 18050 kPa, m1 = 2.5 | 4.55e-09
348.15 K, 25820 kPa, m1 = 1 | 4.25e-09
348.15 K, 29270 kPa, m1 = 0 | 4.44e-09
348.15 K, 29960 kPa, m1 = 2.5 | 4.57e-09
348.15 K, 31120 kPa, m1 = 1 | 4.26e-09
348.15 K, 32970 kPa, m1 = 4.5 | 4.62e-09
348.15 K, 35870 kPa, m1 = 1 | 4.24e-09
348.15 K, 39760 kPa, m1 = 1 | 4.23e-09
348.15 K, 41210 kPa, m1 = 1 | 4.25e-09
348.15 K, 41980 kPa, m1 = 1 | 4.25e-09
348.15 K, 45150 kPa, m1 = 2.5 | 4.58e-09
348.15 K, 45330 kPa, m1 = 1 | 4.26e-09
348.15 K, 46780 kPa, m1 = 0 | 4.49e-09
348.15 K, 62420 kPa, m1 = 1 | 4.24e-09
348.15 K, 64020 kPa, m1 = 1 | 4.25e-09
348.15 K, 65910 kPa, m1 = 4.5 | 4.63e-09
348.15 K, 66700 kPa, m1 = 0 | 4.52e-09
348.15 K, 67090 kPa, m1 = 1 | 4.25e-09
348.15 K, 68900 kPa, m1 = 2.5 | 4.59e-09
373.15 K, 740 kPa, m1 = 4.5 | 6.25e-09
373.15 K, 820 kPa, m1 = 0 | 6.11e-09
373.15 K, 820 kPa, m1 = 1 | 5.94e-09
373.15 K, 940 kPa, m1 = 2.5 | 5.92e-09
373.15 K, 17140 kPa, m1 = 2.5 | 5.92e-09
373.15 K, 17780 kPa, m1 = 4.5 | 6.22e-09
373.15 K, 23410 kPa, m1 = 1 | 5.93e-09
373.15 K, 24180 kPa, m1 = 0 | 6.14e-09
373.15 K, 24360 kPa, m1 = 2.5 | 5.94e-09
373.15 K, 31320 kPa, m1 = 2.5 | 5.89e-09
373.15 K, 41280 kPa, m1 = 4.5 | 6.24e-09
373.15 K, 42090 kPa, m1 = 1 | 5.94e-09
373.15 K, 43130 kPa, m1 = 0 | 6.11e-09
373.15 K, 47550 kPa, m1 = 2.5 | 5.98e-09
373.15 K, 47900 kPa, m1 = 4.5 | 6.21e-09
373.15 K, 54290 kPa, m1 = 4.5 | 6.24e-09
373.15 K, 54410 kPa, m1 = 4.5 | 6.24e-09
373.15 K, 57260 kPa, m1 = 2.5 | 5.86e-09
373.15 K, 59590 kPa, m1 = 2.5 | 5.96e-09
373.15 K, 63050 kPa, m1 = 2.5 | 5.96e-09
373.15 K, 64210 kPa, m1 = 1 | 5.97e-09
373.15 K, 64280 kPa, m1 = 0 | 6.18e-09
373.15 K, 65700 kPa, m1 = 4.5 | 6.27e-09
423.15 K, 3080 kPa, m1 = 0 | 1.03e-08
423.15 K, 3410 kPa, m1 = 1 | 9.43e-09
423.15 K, 4440 kPa, m1 = 2.5 | 9.69e-09
423.15 K, 13020 kPa, m1 = 4.5 | 9.27e-09
423.15 K, 15130 kPa, m1 = 1 | 9.45e-09
423.15 K, 15180 kPa, m1 = 2.5 | 9.67e-09
423.15 K, 15260 kPa, m1 = 2.5 | 9.68e-09
423.15 K, 18510 kPa, m1 = 0 | 1.03e-08
423.15 K, 33580 kPa, m1 = 0 | 1.03e-08
423.15 K, 34630 kPa, m1 = 2.5 | 9.7e-09
423.15 K, 34720 kPa, m1 = 1 | 9.45e-09
423.15 K, 40540 kPa, m1 = 4.5 | 9.29e-09
423.15 K, 56030 kPa, m1 = 2.5 | 9.7e-09
423.15 K, 61620 kPa, m1 = 1 | 9.48e-09
423.15 K, 63300 kPa, m1 = 0 | 1.03e-08
423.15 K, 65050 kPa, m1 = 2.5 | 9.72e-09
423.15 K, 65640 kPa, m1 = 1 | 9.49e-09
423.15 K, 68930 kPa, m1 = 4.5 | 9.3e-09

Reference: the NIST ThermoML archive (doi:10.1021/je200808q)
